# From patent US8197859B2, “Lipolysis stimulator” (Kao Corporation, priority 2006, dated 2012)
# Legend:
# Assay type in all cases: cell-based, rat (male Wistar)
# [1] = test system: free adipocytes from abdominal subcutaneous adipose tissue; test: Test Example 2: lipolysis-stimulating activity (free glycerol) in free adipocytes with norepinephrine; Huang Hua Cai extract and theophylline; conditions: Rattus norvegicus, Adipocyte, theophylline singly, 90 nM norepinephrine, control = 100%
# Protocol: (§1) Specifically, free adipocytes were recovered from the abdominal subcutaneous adipose tissue of each of one to three male Wistar rats (each having a body weight of 170 to 230 g) by use of a collagenase solution.
# (§2) The free adipocytes were incubated at 37° C. for 2 hours in a Hanks buffer solution containing bovine serum albumin and 90 nM norepinephrine (reaction mixture) to which each test substance had been added. The resultant free glycerol was assayed through an enzymatic method (Free Glycerol Reagent, product of Sigma-Aldrich).
# (§3) As a control, adipocytes were incubated in the same buffer containing only norepinephrine but no test substance.
# (§4) Lipolysis-stimulating activity was calculated by the following equation, with 100% being a control value. Lipolysis-stimulating activity(%)=100×(free glycerol in each group)/(free glycerol in control group)
# The following substances were tested: the Huang Hua Cai extract (singly), theophylline (singly), and two different mixtures of Huang Hua Cai extract and theophylline (hereinafter referred to as “Huang Hua Cai-theophylline mixture”), i.e., Huang Hua Cai-theophylline mixture 1 (Huang Hua Cai extract+1 μg/mL theophylline), and a Huang Hua Cai-theophylline mixture 2 (Huang Hua Cai extract+3 μg/mL theophylline). […]
# [2] = test system: free adipocytes from abdominal subcutaneous adipose tissue; test: Test Example 1: lipolysis-stimulating activity (free glycerol) in free adipocytes with norepinephrine; Huang Hua Cai extract and caffeine; conditions: Rattus norvegicus, Adipocyte, caffeine singly, 90 nM norepinephrine, 37° C., 2 hours, control = 100%
# Protocol: The Rodbell's method (Rodbell, M., J. Biol. Chem., 239, 375 (1964)) was employed. Specifically, free adipocytes were recovered from the abdominal subcutaneous adipose tissue of each of one to three male Wistar rats (each having a body weight of 170 to 230 g) by use of a collagenase solution.
# The following substances were tested: the Huang Hua Cai extract (singly), caffeine (singly), and two different mixtures of Huang Hua Cai extract and caffeine (hereinafter referred to as “Huang Hua Cai-caffeine mixture”), i.e., Huang Hua Cai-caffeine mixture 1 (Huang Hua Cai extract+10 μg/mL caffeine), and Huang Hua Cai-caffeine mixture 2 (Huang Hua Cai extract+30 μg/mL caffeine).
# as §2
# To the reaction mixture, added the Huang Hua Cai extract at the final concentration of 0, 3, 10, 30 and 100 μg/mL, respectively, and caffeine at the final concentration of 0, 10 and 30 μg/mL, respectively. […]
# Lipolysis-stimulating activity was calculated by the following equation, with 100% being a control value. […]
# [3] = test system: free adipocytes from abdominal subcutaneous adipose tissue; test: Test Example 3: lipolysis-stimulating activity (free glycerol) in free adipocytes with norepinephrine; Huang Hua Cai extract and aminophylline; conditions: Rattus norvegicus, Adipocyte, aminophylline singly, 90 nM norepinephrine, control = 100%
# Protocol: as §1, §2, §3, §4
# The procedure of Test Example 1 was repeated, except that caffeine was changed to aminophylline. The following substances were tested: and two different mixtures of Huang Hua Cai extract and aminophylline (hereinafter referred to as “Huang Hua Cai-aminophylline mixture”), i.e., Huang Hua Cai-aminophylline mixture 1 (Huang Hua Cai extract+1 μg/mL aminophylline), and a Huang Hua Cai-aminophylline mixture 2 (Huang Hua Cai extract+3 μg/mL aminophylline).
# Aminophylline employed in the test was a commercial product (Sigma-Aldrich). […]
smiles,measurement,setting,value
"Cn1c(=O)c2[nH]cnc2n(C)c1=O [Theophylline, theophylline]",activity at 1 µg/mL,[1]; 1 μg/mL,142%
same,activity at 3 µg/mL,[1]; 3 μg/mL,188%
"Cn1c(=O)c2c(ncn2C)n(C)c1=O [Caffeine, caffeine]",activity at 10 µg/mL,[2]; 10 μg/mL,157%
same,activity at 30 µg/mL,[2]; 30 μg/mL,207%
"Cn1c(=O)c2[nH]cnc2n(C)c1=O [Aminophylline, aminophylline]",activity at 1 µg/mL,[3]; 1 μg/mL,140%
same,activity at 3 µg/mL,[3]; 3 μg/mL,197%
